{"source": "patent US12071488B2", "about": "“Method of sensitizing cancer cells to anti-cancer treatment” (TWO TO BIOTECH LTD., priority 2017, dated 2024)", "key": {"[1]": {"tested_on": "HER2", "assay": "Immunofluorescence of HER2 in MDA-MB-231 cells", "type": "cell-based, human", "experimental": "Cells (MDA-MB-231, MDA-MB-468 and BTS-149) were grown until 70-80% density was reached. Then the growth medium was discarded and the cells were treated with trypsin and medium as described above. After the cells were detached from the surface, the 20 ml cell suspension (namely cells in medium and Trypsin) were transferred into 50 ml conical tubes and centrifuged at 300 g for 10 min in 4° C. Next, the supernatant was discarded and 2 ml fresh medium were added to the cell pellet. Then the cells were fluidized and 13 ml medium was added to the tubes, thereby suspending the cells in a total of 15 ml medium. The cells were counted and seeded at 10.000-15,000 cells/well on chamber slide in 1 ml growing medium. The chamber slide seeded with cells was placed in the hood for 1 hour and then transferred to the incubator for an overnight incubation under the above conditions. The following day the medium was aspirated from the cell chamber slides and discarded and 1 ml cell treatment medium supplemented with APC1 (at a final concentration of 100 or 250 μg/ml) or control (medium only). Medium was added to each one of the wells (aliquots of APC1 were used in order to avoid repeated freeze-thaw cycle). The cells were then incubated for 24-144 hours. […]"}, "[2]": {"tested_on": "human TNBC tumors (MDA-MB-231)", "assay": "Relative tumor volume in nude mice inoculated with TNBC cells", "type": "in vivo", "conditions": "MDA-MB-231 tumors", "excerpt": "To this end, mice were inoculated with TNBC cells as detailed above, briefly 32 nude mice were inoculated subcutaneously with TNBC cells (MDA-MB-231, 8×10^6 cells per mouse)."}}}
{"sequence": "EKGAAFSPIYPRRK (C terminal peptide of KTPAF50) [APC1, polypeptide consisting of the 14 C-terminal amino acid residues of the peptide KTPAF50]", "values": [{"measurement": "HER2 expression by immunofluorescence", "setting": "[1]; single dose 250 μg/ml APC1, 48 hours, vs control cells", "value": "clear HER2 expression"}, {"measurement": "HER2 expression by immunofluorescence, multiple doses", "setting": "[1]; three doses of 250 μg/ml APC1, 144, 96 and 72 hours, vs single dose", "value": "enhanced"}, {"measurement": "effect on tumor volume compared with doxorubicin-treated group", "setting": "[2]; APC1 15 mg/kg three times a week", "value": "more pronounced"}, {"measurement": "relative tumor volume", "setting": "[2]; APC1 15 mg/kg, doxorubicin 3 mg/kg once a week, 5 weeks, control increased linearly", "value": "moderate increase"}]}
